Test system: eIF2-GTP-Met-tRNAi ternary complex
Assay: Ternary complex assay (dual luciferase, firefly/renilla ratio) in stable KLN-tTA/pBISA-DL(ATF-4) cells; HTS and hit confirmation
Assay type: cell-based, mouse
Parameters: Activity 10 uM / Activity 2.5 uM / Activity 5 uM: unit not given here
Settings: confirmed hits of the screen (Table 5); for Activity 10 uM: compound at 10 uM; for Activity 5 uM: compound at 5 uM; for Activity 2.5 uM: compound at 2.5 uM

SMILES	Activity 10 uM	Activity 5 uM	Activity 2.5 uM
CN1c2cccc[c]2[Sn]([CH3])([CH3])[c]2ccccc21 [Compound 118028]	4.1		
CSC1=CC(=O)C=C(C)C1=O [Compound 119026]	12.6	4	
CCN1/C(=C\c2ccc3cc(C)ccc3[n+]2CC)[Se]c2ccccc21.[I-] [Compound 119675]	8.78		5.52
Oc1ccccc1/C=N\N=C\c1ccco1 [Compound 119688]	3.9	2.45	
CC(C)c1ccc(/C=C2\C=Cc3ccccc32)cc1 [Compound 120440]	3.8	2.3	
CC(=O)Oc1ccccc1/C=C/NC(=O)OC(C)(C)C [Compound 122241]	5	3.2	
CCCCCCCCCCCCCCCCCC[n+]1cccc(C(=O)c2ccccc2)c1.[Br-] [Compound 122844]	13.27		1.77
CCCCCCCC(=O)[O][Hg][c]1ccccc1 [Compound 122854]	3.2		
CC(C)=CCC1=CC(=O)c2ccccc2C1=O [Compound 123507]	10.5	2.41	
CN(C)CC1CC2C3CC=C4CC(O)CCC4(C)C3CCC2(C)C1=O (stereo not drawn) [Compound 124738]	3.7		0.79
O=C(CCl)Nc1ccc(O)c2ccccc12 [Compound 125369]	9.98		1.08
CCC[CH2][Sn]([CH2]CCC)([CH2]CCC)[CH2]C(C)(C)c1ccccc1 [Compound 126650]	8.04		0.64
CCOC(=N)c1cn(C2OC(CO)C(O)C2O)c2nc[nH]c(=O)c12.Cl (stereo not drawn) [Compound 128665]	3.18		17.83
O=[N+]([O-])c1cc(Cl)ccc1NC(Nc1ccc(Cl)cc1[N+](=O)[O-])C(Cl)(Cl)Cl [Compound 130140]	19.67		0.74
CC(=O)Oc1ccc(N(CCCl)CCCl)cc1OC(C)=O [Compound 130216]	4.77		0.51
CCCCCc1[nH]nc(C(=O)OC)c1N=NN1CCOCC1 [Compound 131237]	3.3		0.87
c1ccc(-c2ccc3c4ccccc4ccn23)cc1 [Compound 131464]	3.99		3.63
CC[Si](CC)(CC)[Si](c1ccccc1)(c1ccccc1)c1ccccc1 [Compound 131584]	7.95		0.89
N=C(N)c1cn(C2OC(CO)C(O)C2O)c2ncnc(N)c12 (stereo not drawn) [Compound 131663]	8.18		7
COc1ccc(Cc2cncc3c(O)c(OC)ccc23)cc1O [Compound 131747]	3.25		2.54
CCCCCCCCCCCCOC(=O)c1cc(O)c(O)c(O)c1 [Compound 133463]	4.63	8.8	
Nc1c(Br)cc2c([nH]c(=O)c3cc(Cl)ccc32)c1Br [Compound 134404]	12.72		5.44

SMILES	Activity 10 uM	Activity 5 uM	Activity 2.5 uM
Cl.Clc1ccc(C2NC(c3ccc(Cl)cc3)NC(c3ccc(Cl)cc3)N2)cc1 (stereo not drawn) [Compound 135155]	7.19		0.94
O=S(=O)(c1ccccc1)N1CC2CC(Br)C(Br)CC21 (stereo not drawn) [Compound 135331]	31.606	15.388	
C(C[P+](c1ccccc1)(c1ccccc1)c1ccccc1)=C(c1ccccc1)c1ccccc1 [Compound 135741]	7.226	8.605	
CN1N=C([P+](c2ccccc2)(c2ccccc2)c2ccccc2)CC1(c1ccccc1)c1ccccc1.[I-] [Compound 135744]	21.9	7	
CCOC(=O)CN1N=C([P+](c2ccccc2)(c2ccccc2)c2ccccc2)CC1(c1ccccc1)c1ccccc1.[Br-] [Compound 135745]	6.5	3.2	
O=[N+]([O-])c1ccccc1N/N=C\c1c[nH]c2ccccc12 [Compound 135854]	5.75		3.56
COc1cccc2c1n([O-])c1cccc(=O)c-1[n+]2[O-].COc1cccc2c1n([O-])c1cccc(=O)c-1[n+]2[O-].[Cu+2] [Compound 136768]	3.271	4.668	
CCCN(CCC)N=Nc1c(-c2ccccc2)n[nH]c1-c1ccccc1 [Compound 136886]	28.5	2.5	
CCCCN(C)N=Nc1c(-c2ccccc2)n[nH]c1-c1ccccc1 [Compound 136889]	16.7	3.9	
CC(=O)Oc1c2c(c(CC=C(C)C)c3c1C(=O)C1=CC4CC5C(C)(C)OC(C/C=C(/C)C(=O)O)(C4=O)C15O3)OC(C)(CCC=C(C)C)C=C2 (stereo not drawn) [Compound 139221]	9	2.1	
CCCCCCCCCCCCCCNC(=O)C[N+](C)(C)Cc1ccccc1.[Cl-] [Compound 141112]	3.76		0.98
N#Cc1ncc(Cl)cc1[N+](=O)[O-] [Compound 141226]	3.5		1.05
O=C(Cc1ccccc1)c1ccc2c3c(ccc([N+](=O)[O-])c13)CC2 [Compound 142606]	34.1		16.57
CO[C@H]1/C=C/O[C@@]2(C)Oc3c(C)c(O)c4c(O)c(c(/C=N/Nc5ccc([N+](=O)[O-])cc5[N+](=O)[O-])c(O)c4c3C2=O)NC(=O)/C(C)=C\C=C\[C@H](C)[C@H](O)[C@@H](C)[C@@H](O)[C@@H](C)[C@H](OC(C)=O)[C@@H]1C [Compound 144126]	7.3	1.3	
Cl.S=C(N/N=C/c1ccccn1)N/N=C/c1ccccn1 [Compound 146007]	3.4	1.8	
CC[N+](CC)=c1ccc2nc3c(cc(N)c4ccccc43)oc-2c1.[Cl-] [Compound 146184]			3.13
c1ccc(N/N=C(/CC/C(=N\Nc2ccccc2)c2ccccc2)c2ccccc2)cc1 [Compound 146216]	5.04		2.73
CC(C)(C)C[CH2][Hg][Cl] [Compound 146249]			3.04
CCCCCCCCCCCc1n(Cc2ccccc2)c2ccccc2[n+]1C.[Br-] [Compound 148342]	19.7555	14.51	
CCCCSC1=CC(=O)c2ccccc2C1=O [Compound 149109]			18.18
COc1cccc2c1C(=O)c1c(O)c3c(c(O)c1C2=O)C[C@@](O)(C(=O)COC(C)=O)C[C@@H]3OC1CC(N)C(O)C(C)O1.Cl (stereo partly drawn) [Compound 149581]	4.3	3.5	
OC(Br)C1C(c2ccccc2)N1C1CCCCC1 (stereo not drawn) [Compound 150279]	3.9		0.62

SMILES	Activity 10 uM	Activity 5 uM	Activity 2.5 uM
Br.O=C(/C(=C\c1ccccc1)CN1CCOCC1)c1ccc(Br)cc1 [Compound 150311]	39.7	36.67	
O=C(/C=C(\CN1CCCCC1)c1ccccc1)c1ccccc1 [Compound 150320]	16.4	19.9	
Cc1ccc2c(c1)SCc1c-2[nH]c2ccccc12 [Compound 150787]	5.6		2.94
CC(N)c1ccc(OCCOc2ccc(C(C)(C)CC(C)(C)C)cc2)cc1 (stereo not drawn) [Compound 151117]	12.07		0.85
CC(C)(C)CC(C)(C)c1ccc(OCCOc2ccc(C(=O)Nc3ccc([N+](=O)[O-])cc3)cc2)cc1 [Compound 151119]	6.62		0.72
CCCCCC[N+](CCCCCC)(CCCCCC)CCCCCC.O=C([O-])c1ccccc1 [Compound 152111]	10.391	10.85	
CCCCCCCCCCCCCCC[N+](C)(C)C.[Cl-] [Compound 155015]	3.73		2.19
CN(C)c1ccc(C(C[N+](=O)[O-])(c2ccc(N(C)C)cc2)c2ccc(N(C)C)cc2)cc1 [Compound 156572]	7.9345	7.884	
O=C(Nc1ccccc1O)/C(Cl)=C/Cl [Compound 157236]	3.4		0.75
CCOC(=O)c1[nH]c(-c2ccc(OC)cc2)c(C(=O)OCC)c1-c1ccccc1 [Compound 157306]	3.94		1.77
c1ccc2c(c1)O[As](O[As]1Oc3ccccc3O1)O2 [Compound 157382]	9.04		0.68
Cc1cc(C)c(C(=O)Oc2ccc3ccccc3c2)c(C)c1 [Compound 157507]	3.33		2.07
NNc1nc2ccc([N+](=O)[O-])cc2s1 [Compound 158091]	4.83		1.66
O=C(Nc1ccc2ccccc2c1)c1ccc(Cl)cc1Cl [Compound 158959]	4.01		3.2
c1ccc2ncc(-c3ccc4ccccc4n3)cc2c1 [Compound 159209]	8.5	4.3	
CC1=C(Br)C(=O)C(c2c(C)cc(C)c(Br)c2C)=C(Br)C1=O [Compound 159569]	5.804	3.21	
CC(=O)Nc1cccc(/C=C/C=C/c2ccc([N+](=O)[O-])cc2)c1 [Compound 161089]	3.53		1.67
CCCN(/C=C/C=C/C=[N+](CCC)CCC)CCC.[O-][Cl+3]([O-])([O-])[O-] [Compound 161504]	5.3	2.6	
C=C1N(c2cc3ccccc3o2)C(=O)OC12CCCCC2 [Compound 162375]	3.07		1.7
Cc1ccc2nc(-c3ccccc3N)[nH]c2c1 [Compound 163454]	3.5	2.2	
